Measurements: patent US9289488B2, “Vaccine engineering” (AC Immune SA, priority 2010, dated 2016)
Like-named read-outs stand apart in the source and are kept apart here. K(Palm) = lysine with palmitoylated side chain (X = Palmitoyl); K(Ac) = lysine with acetylated side chain (X = Acetyl)

Tests used:
[1] = molecular target: T1, β-sheet aggregates of liposomal Palm1-15 (ACI-24) (Homo sapiens, UniProt P05067); assay: Disaggregation assay using ThT fluorescence on ACI-24; type: biochemical; details: for decrease of ThT fluorescence upon addition of metal: near stoichiometric metal:peptide (20 μM : 15 μM), 2 h incubation; for ThT fluorescence after incubation with β-sheet breaker small molecule: ACI-24, 2 h incubation
T1 construct: purchased Bachem (Switzerland); host or cells: chemical synthesis
Description: (§1) • CD spectra were acquired on a Jasco-815 spectropolarimeter (Japan) with a 0.1 cm path length quartz cuvette at 23° C. Measurements were made with a 1.0 nm bandwidth and 0.5 nm resolution. A scan speed of 50 nm/min was employed with response time of 1 s. Solvent control spectra (4 scans) were averaged and subtracted from the average of 8 scans of each sample spectra. All spectra ([θ]obs, degrees) were smoothed after being converted to mean residue molar ellipticity ([θ], degrees cm^2 dmol^−1) with the equation [θ]=[θ]obs×(MRW/10lc), where MRW is the mean residue molecular weight (MW/number of residues), l is the optical path length (cm) and c is the concentration (g/cm^3). […] Spectra of the corresponding empty liposomes lacking peptide were subtracted. A2 ThT Fluorescence. • Fluorescence emission spectra were measured at 25° C. on a Tecan M200 spectrofluorimeter with an excitation of 440 nm. […] Data were fitted using non-linear regression analysis (SigmaPlot v10.0) assuming single-site binding saturation in order to calculate apparent Kd and maximal binding Bmax. A3 Disaggregation Assay Using ThT Fluorescence. • ZnCl2, FeCl3 or CuCl2 (2 μL, 1 mM in H2O) were incubated with liposomes diluted 4-fold in PBS (48 μL) for 2 h at 22° C. PBS (48 μL) with or without DPTA (0.4 mM) was added accordingly after 5 min. ThT (2 μL, 2.4 mM in H2O) was then added and fluorescence measured after a further 5 min. For disaggregation with small molecules, Rosmarinic acid, Tannic acid or Methylene Blue (2 μL, 2.7 mM in PBS) were added to 86 μL of liposomes diluted 8-fold with PBS. After 2 h incubation at RT, ThT (2 μL, 2.4 mM in H2O) was added and after 10 min. fluorescence was measured at 490 nm (Ex. 440 nm). A4 MAS-NMR Spectroscopy. • Experiments were conducted using a 3.2 mm triple-resonance (^1H, ^13C, ^15N) MAS probe (Bruker Biospin, Germany) at a static magnetic field of 16.4 T corresponding to 700 MHz proton resonance frequency. […] Experiments were recorded using 10 kHz MAS and at effective sample temperature of about 4° C. After a cross polarization (CP) step employing a contact time of 600 μs, the SPC5 pulse sequence was used for generation of DQ coherence, with a ^13C radio frequency (r.f.) field strength of 50 kHz and DQ excitation and reconversion time totaling 2.28 ms. Acquisition involved in each case 110K repetitions. An ^1H field strength of 83.3 kHz was used during excitation and SPINAL64 proton decoupling. A5 SPR Analysis of Peptide-Liposome Interactions. • Experiments were performed at 25° C. using 0.2 μm filtered and degassed PBS as running buffer. An L1 sensor chip (GE Healthcare, Sweden) was docked into a BIAcore 1000 instrument and the chip surface conditioned by injection of 50 μL of Zwittergent at 30 μL/min. Liposomes lacking peptide (‘empty’ liposomes) were then immobilized onto the sensor chip following 2 successive injections of 50 μL at 2 μL/min. Finally 50 μL of 50 mM NaOH was injected over the surface at 30 μL/min in order to render the surface more unilamellar. […] 50 μL of acetylated peptides solubilized in PBS were then injected over the surface over a range of concentrations at a flow rate of 30 μL/min, followed by dissociation with PBS for 300 s. After analysis of the interaction of different peptides, a fresh lipid bilayer was immobilized. A6 Dynamic Light Scattering. • Liposome samples were diluted 100-fold with PBS. Analysis was performed using a Zetasizer Nano (Malvern, USA) at 25° C. Data was analyzed with DTS 5.0 (Malvern) software by signal intensity in order to calculate the average liposome diameter and polydispersity index (PDI). A7 Cryo-EM. • Liposome sample was diluted 6-fold with PBS and then 3 μL was applied on glow discharged R 2/4 holey carbon grids (Quantifoil®), blotted off, and plunged frozen into liquid ethane under temperature and humidity controlled conditions using the Vitribot™ (FEI, The Netherlands).

[2] = reported value; read-out: apparent Kd for the interaction of ThT with Aβ1-40; cited from earlier work
[3] = CD spectroscopy of peptide secondary structure; type: physicochemical; details: PBS; palmitoylated peptides in liposomes, acetylated peptides alone
Description: as §1

[4] = ThT fluorescence binding to liposomal peptide constructs; details: for Kd: ThT binding, single site fit, read-out: App. Kd; for Kd / Bmax: liposomes DMPC/DMPG/cholesterol/MPLA 9:1:7:0.06, diluted 8-fold; for Bmax: ThT fluorescence at saturation; for Bmax (% rel. ACI-24): relative to ACI-24 (Palm1-15); for ThT fluorescence emission (in words): emission at 485 nm, excitation 440 nm, PBS
Description: as §1

Kd [4] [µM]	Bmax [4]	Bmax (% rel. ACI-24) [4] [%]	Compound	Secondary structure by CD spectroscopy [3]	also measured
			[Cl][Cu][Cl] [Cu(II), CuCl2]		EC50 ([1]; ACI-24, ThT fluorescence, read-out: EC50 value for Cu(II) disaggregation): ~3 µM; decrease of ThT fluorescence upon addition of metal [1]: ~75%
			[Cl][Fe]([Cl])[Cl] [Fe(III), FeCl3]		decrease of ThT fluorescence upon addition of metal [1]: none
			CN(C)c1ccc2nc3ccc(=[N+](C)C)cc-3sc2c1 [Methylene Blue]		ThT fluorescence after incubation with β-sheet breaker small molecule [1]: most efficient disaggregation
			O=C(/C=C/c1ccc(O)c(O)c1)O[C@H](Cc1ccc(O)c(O)c1)C(=O)O [Rosmarinic acid]		ThT fluorescence after incubation with β-sheet breaker small molecule [1]: decrease of fluorescence
			O=C(OC[C@H]1O[C@@H](OC(=O)c2cc(O)c(O)c(OC(=O)c3cc(O)c(O)c(O)c3)c2)[C@H](OC(=O)c2cc(O)c(O)c(OC(=O)c3cc(O)c(O)c(O)c3)c2)[C@@H](OC(=O)c2cc(O)c(O)c(OC(=O)c3cc(O)c(O)c(O)c3)c2)[C@@H]1OC(=O)c1cc(O)c(O)c(OC(=O)c2cc(O)c(O)c(O)c2)c1)c1cc(O)c(O)c(OC(=O)c2cc(O)c(O)c(O)c2)c1 [Tannic acid]		ThT fluorescence after incubation with β-sheet breaker small molecule [1]: decrease of fluorescence
			[Cl-].[Cl-].[Zn+2] [Zn(II), ZnCl2]		decrease of ThT fluorescence upon addition of metal [1]: ~12%
			Aβ1-40: β-amyloid peptide Aβ1-40		Kd [2]: 11 µM
			H-K(X)-K(X)-DAAFRHKSGYEVHHQ-K(X)-K(X)-OH ({K(Ac)-K(Ac)}-DAAFRHKSGYEVHHQ-{K(Ac)-K(Ac)-OH}) [Acetyl1-15(E3A, D7K), X = Acetyl]	unstructured random coil conformations	
14.7	24854	68	H-K(X)-K(X)-DAAFRHKSGYEVHHQ-K(X)-K(X)-OH ({K(Palm)-K(Palm)}-DAAFRHKSGYEVHHQ-{K(Palm)-K(Palm)-OH}) [Palm1-15(E3A, D7K), X = Palmitoyl]		
0.7	12653	35	H-K(X)-K(X)-DAEFR-K(X)-K(X)-OH [Palm1-5, X = Palmitoyl]	mixed proportion of extended β-sheet and random coil conformations	ThT fluorescence emission (in words) [4]: lower ThT fluorescence intensity
			H-K(X)-K(X)-DAEFRHKSGYEVHHQ-K(X)-K(X)-OH ({K(Ac)-K(Ac)}-DAEFRHKSGYEVHHQ-{K(Ac)-K(Ac)-OH}) [Acetyl1-15(D7K), X = Acetyl]	unstructured random coil conformations	
8.8	21197	58	H-K(X)-K(X)-DAEFRHKSGYEVHHQ-K(X)-K(X)-OH ({K(Palm)-K(Palm)}-DAEFRHKSGYEVHHQ-{K(Palm)-K(Palm)-OH}) [Palm1-15(D7K), X = Palmitoyl]		
			H-K(X)-K(X)-DAKFRHKSGYEVHHQ-K(X)-K(X)-OH ({K(Ac)-K(Ac)}-DAKFRHKSGYEVHHQ-{K(Ac)-K(Ac)-OH}) [Acetyl1-15(E3K, D7K), X = Acetyl]	unstructured random coil conformations	
12.1	12567	35	H-K(X)-K(X)-DAKFRHKSGYEVHHQ-K(X)-K(X)-OH ({K(Palm)-K(Palm)}-DAKFRHKSGYEVHHQ-{K(Palm)-K(Palm)-OH}) [Palm1-15(E3K, D7K), X = Palmitoyl]		
			H-K(X)-K(X)-DAKFRHKSGYKVHHQ-K(X)-K(X)-OH ({K(Ac)-K(Ac)}-DAKFRHKSGYKVHHQ-{K(Ac)-K(Ac)-OH}) [Acetyl1-15(E3K, D7K, E11K), X = Acetyl]	unstructured random coil conformations	
10.1	24981	69	H-K(X)-K(X)-DAKFRHKSGYKVHHQ-K(X)-K(X)-OH ({K(Palm)-K(Palm)}-DAKFRHKSGYKVHHQ-{K(Palm)-K(Palm)-OH}) [Palm1-15(E3K, D7K, E11K), X = Palmitoyl]		
			H-K(X)-K(X)-GHEAYHSVERFDDQH-K(X)-K(X)-OH [scAcetyl15] ({K(Ac)-K(Ac)}-GHEAYHSVERFDDQH-{K(Ac)-K(Ac)-OH}) [X = Acetyl]	unstructured random coil conformations	ThT fluorescence emission (in words) [4]: no fluorescence
7.9	13844	38	H-K(X)-K(X)-GHEAYHSVERFDDQH-K(X)-K(X)-OH [scPalm15] ({K(Palm)-K(Palm)}-GHEAYHSVERFDDQH-{K(Palm)-K(Palm)-OH}) [X = Palmitoyl]	β-sheet conformation	
			H-K(X)-K(X)-QHHVEYGSDHRFEAD-K(X)-K(X)-OH [Acetyl15-1] ({K(Ac)-K(Ac)}-QHHVEYGSDHRFEAD-{K(Ac)-K(Ac)-OH}) [X = Acetyl]	unstructured random coil conformations	ThT fluorescence emission (in words) [4]: no fluorescence
7.8	11023	30	H-K(X)-K(X)-QHHVEYGSDHRFEAD-K(X)-K(X)-OH [Palm15-1] ({K(Palm)-K(Palm)}-QHHVEYGSDHRFEAD-{K(Palm)-K(Palm)-OH}) [X = Palmitoyl]	β-sheet conformation	
